Test results taken from US12540131B2 (Merck Sharp & Dohme LLC, priority 2019, dated 2026).

What follows are compounds tested against GST tagged truncated human mutant G2019S LRRK2 (Homo sapiens (Human), UniProt Q5S007, G2019S) (assay: LRRK2 Km ATP LanthaScreen Assay). Conditions: G2019S LRRK2, 134 μM ATP (Km ATP), mean values.
Sequence of GST tagged truncated human mutant G2019S LRRK2 (Q5S007 970-2527 G2019S): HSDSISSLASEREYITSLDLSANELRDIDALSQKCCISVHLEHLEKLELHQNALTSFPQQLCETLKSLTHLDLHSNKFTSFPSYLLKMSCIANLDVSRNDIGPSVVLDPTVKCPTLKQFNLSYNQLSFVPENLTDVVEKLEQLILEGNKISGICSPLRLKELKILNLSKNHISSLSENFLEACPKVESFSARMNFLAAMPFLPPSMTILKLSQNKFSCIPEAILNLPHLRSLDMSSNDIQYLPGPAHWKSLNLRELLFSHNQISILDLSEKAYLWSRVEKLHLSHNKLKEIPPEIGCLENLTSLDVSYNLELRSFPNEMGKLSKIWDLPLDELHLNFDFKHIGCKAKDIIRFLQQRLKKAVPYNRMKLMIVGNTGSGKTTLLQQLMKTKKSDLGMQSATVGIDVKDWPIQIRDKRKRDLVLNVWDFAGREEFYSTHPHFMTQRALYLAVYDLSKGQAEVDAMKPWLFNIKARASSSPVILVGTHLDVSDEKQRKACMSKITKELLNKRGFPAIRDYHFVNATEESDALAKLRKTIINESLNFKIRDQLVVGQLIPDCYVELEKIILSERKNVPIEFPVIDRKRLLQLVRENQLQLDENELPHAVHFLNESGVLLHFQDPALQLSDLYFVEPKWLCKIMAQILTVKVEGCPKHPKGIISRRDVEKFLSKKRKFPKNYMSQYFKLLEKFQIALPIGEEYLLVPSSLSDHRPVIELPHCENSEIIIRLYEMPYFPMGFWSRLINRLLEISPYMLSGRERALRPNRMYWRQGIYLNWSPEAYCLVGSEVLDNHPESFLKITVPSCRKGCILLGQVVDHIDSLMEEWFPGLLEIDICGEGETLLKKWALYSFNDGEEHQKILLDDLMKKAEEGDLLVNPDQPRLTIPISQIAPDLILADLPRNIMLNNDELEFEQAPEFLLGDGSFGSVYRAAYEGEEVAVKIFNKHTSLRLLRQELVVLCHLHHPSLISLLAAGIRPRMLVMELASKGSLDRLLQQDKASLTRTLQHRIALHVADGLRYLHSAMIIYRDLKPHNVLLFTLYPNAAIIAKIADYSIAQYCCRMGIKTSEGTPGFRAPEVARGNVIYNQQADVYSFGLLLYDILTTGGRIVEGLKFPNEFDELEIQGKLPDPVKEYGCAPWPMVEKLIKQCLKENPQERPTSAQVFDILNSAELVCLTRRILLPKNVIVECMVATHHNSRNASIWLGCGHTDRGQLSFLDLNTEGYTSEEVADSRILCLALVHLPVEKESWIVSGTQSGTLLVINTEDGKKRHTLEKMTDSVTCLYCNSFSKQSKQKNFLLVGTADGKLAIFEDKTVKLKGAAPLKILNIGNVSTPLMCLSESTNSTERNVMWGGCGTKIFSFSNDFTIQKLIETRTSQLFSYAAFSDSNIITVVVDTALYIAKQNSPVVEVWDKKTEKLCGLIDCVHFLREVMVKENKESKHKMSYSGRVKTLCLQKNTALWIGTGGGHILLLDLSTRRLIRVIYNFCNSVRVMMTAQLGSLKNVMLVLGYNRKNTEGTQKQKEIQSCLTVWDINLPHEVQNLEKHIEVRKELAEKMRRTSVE
Assay type: biochemical
Procedure, shortened: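 Enzyme (GST-tagged, truncated) was preincubated with compound for 15 min at RT in 50 mM Tris pH 8.5, 10 mM MgCl2, 0.01% Brij-35, 1 mM EGTA, 2 mM DTT and 0.05 mM orthovanadate. Fluorescein-LRRKtide and 134 μM ATP (Km) were then added for 90 min. EDTA and Tb-anti-pERM antibody stopped the reaction; the TR-FRET 520/495 ratio gave 4-parameter IC50s, reported as mean pIC50.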
With `Cc1cc2cnc(Nc3cnn(C4CC4(F)F)c3Cl)nc2cc1[C@@H]1CCN(C2COC[C@H]2O)C[C@H]1F` (single isomer, unassigned) [Ex-4.138, (R)(3S,4S)(3S,4S) or (R)(3S,4S)(3R,4R) or (R)(3R,4R)(3S,4S) or (R)(3R,4R)(3R,4R) or (S)(3S,4S)(3S,4S) or (S)(3S,4S)(3R,4R) or (S)(3R,4R)(3S,4S) or (S)(3R,4R)(3R,4R) 4-[4-(2-{[5-chloro-1-(2,2-difluorocyclopropyl)-1H-pyrazol-4-yl]amino}-6-methylquinazolin-7-yl)-3-fluoropiperidin-1-yl]oxolan-3-ol] the “LRRK2 pIC50” value was 8.44. In the case of `C[C@@]1(N2CCC(c3cc4nc(Nc5cnn(C6CC6)c5C(F)F)ncc4cc3Cl)CC2)COC[C@@H]1O` (single isomer, unassigned) [Ex-2.91, (3S,4S) or (3R,4R) 4-[4-(6-chloro-2-{[1-cyclopropyl-5-(difluoromethyl)-1H-pyrazol-4-yl]amino}quinazolin-7-yl)piperidin-1-yl]-4-methyloxolan-3-ol], the “LRRK2 pIC50” value is reported as over 9.20. For `Cc1c(Nc2ncc3cc(Cl)c(C4CCN(C[C@H](O)c5cccc(Cl)c5)CC4)cc3n2)cnn1C1CC1` [Ex-4.194, (1R)-2-(4-{6-chloro-2-[(1-cyclopropyl-5-methyl-1H-pyrazol-4-yl)amino]quinazolin-7-yl}piperidin-1-yl)-1-(3-chlorophenyl)ethan-1-ol], the “LRRK2 pIC50” value was 8.28. In the case of `Cc1cc(Nc2ncc3cc(C)c([C@H]4CCN([C@@H]5COC[C@@H]5O)C[C@@H]4F)cc3n2)n(C)n1` (single isomer, unassigned) [Ex-5.11, (3S,4S)(3S,4S) or (3S,4S)(3R,4R) or (3R,4R)(3S,4S) or (3R,4R)(3R,4R) 4-(4-{2-[(1,3-dimethyl-1H-pyrazol-5-yl)amino]-6-methylquinazolin-7-yl}-3-fluoropiperidin-1-yl)oxolan-3-ol], the “LRRK2 pIC50” value is reported as 8.57. In the case of `Clc1cc2cnc(Nc3cnn(C4CC4)c3Cl)nc2cc1C1CC2(C1)CN(C1COC1)C2` [Ex-4.119, 6-chloro-N-(5-chloro-1-cyclopropyl-1H-pyrazol-4-yl)-7-(2-(oxetan-3-yl)-2-azaspiro[3.3]heptan-6-yl)quinazolin-2-amine], the “LRRK2 pIC50” value is reported as 7.96. In the case of `Cc1c(Nc2ncc3cc(Cl)c(C4CCN(C(=O)[C@H](C)O)C4)cc3n2)cnn1C1CC1` (single isomer, unassigned) [Ex-4.190, (2S)(3S) or (2S)(3R) 1-(3-{6-chloro-2-[(1-cyclopropyl-5-methyl-1H-pyrazol-4-yl)amino]quinazolin-7-yl}pyrrolidin-1-yl)-2-hydroxypropan-1-one], the “LRRK2 pIC50” value is reported as 8.73. In the case of `OC1CCCC1N1CC[C@H](c2cc3nc(Nc4cnn(C5CC5)c4Cl)ncc3cc2Cl)[C@@H](F)C1` (single isomer, unassigned) [Ex-4.158, (1S,2R)(3S,4S) or (1R,2S)(3S,4S) or (1R,2R)(3S,4S) or (1S,2S)(3S,4S) or (1S,2R)(3R,4R) or (1R,2S)(3R,4R) or (1R,2R)(3R,4R) or (1S,2S)(3R,4R) 2-(4-{6-chloro-2-[(5-chloro-1-cyclopropyl-1H-pyrazol-4-yl)amino]quinazolin-7-yl}-3-fluoropiperidin-1-yl)cyclopentan-1-ol], the “LRRK2 pIC50” value is reported as 8.99. With `Cc1c(Nc2ncc3cc(Cl)c(C4CCN(C[C@H](O)c5cc(F)ccc5F)CC4)cc3n2)cnn1C1CC1` [Ex-4.204, (1R)-2-(4-{6-chloro-2-[(1-cyclopropyl-5-methyl-1H-pyrazol-4-yl)amino]quinazolin-7-yl}piperidin-1-yl)-1-(2,5-difluorophenyl)ethan-1-ol] the “LRRK2 pIC50” value was 7.67. With `F[C@H]1CN(C2COC2)CC[C@@H]1c1cc2nc(Nc3cnn(C4CC4)c3Cl)ncc2cc1Cl` (single isomer, unassigned) [Ex-4.35, (3S,4S) or (3R,4R) 6-chloro-N-(5-chloro-1-cyclopropyl-1H-pyrazol-4-yl)-7-[3-fluoro-1-(oxetan-3-yl)piperidin-4-yl]quinazolin-2-amine] the “LRRK2 pIC50” value was over 9.20. With `COC1CC(Cn2ncc(Nc3ncc4cc(Cl)c(C5CCN(C6COC6)CC5)cc4n3)c2Cl)C1` (centres unmarked) [Ex-8.17, 6-chloro-N-{5-chloro-1-[(3-methoxycyclobutyl)methyl]-1H-pyrazol-4-yl}-7-[1-(oxetan-3-yl)piperidin-4-yl]quinazolin-2-amine] the “LRRK2 pIC50” value was over 9.20. `Cc1cc(Nc2ncc3cc(Cl)c(C4CCN(C)CC4F)cc3n2)sn1` (stereo in doubt) [Ex-4.52, (3S,4R) or (3R,4R) 6-chloro-7-(3-fluoro-1-methylpiperidin-4-yl)-N-(3-methyl-1,2-thiazol-5-yl)quinazolin-2-amine] was tested, and the “LRRK2 pIC50” value was 9.06. `Cc1c(Nc2ncc3cc(Cl)c([C@H]4CCN(C5COC5)C[C@@H]4F)cc3n2)cnn1C1CC1(F)F` (single isomer, unassigned) [Ex-4.176, (R)(3S,4S) or (S)(3S,4S) or (R)(3R,4R) or (S)(3R,4R) 6-chloro-N-[1-(2,2-difluorocyclopropyl)-5-methyl-1H-pyrazol-4-yl]-7-[(3R,4R)-3-fluoro-1-(oxetan-3-yl)piperidin-4-yl]quinazolin-2-amine] was tested, and the “LRRK2 pIC50” value was 8.73. With `Cc1cc2cnc(Nc3cnn(C4CC4(F)F)c3Cl)nc2cc1[C@@H]1CCN(C2COC[C@@H]2O)C[C@H]1F` (single isomer, unassigned) [Ex-4.137, (R)(3S,4S)(3S,4S) or (R)(3S,4S)(3R,4R) or (R)(3R,4R)(3S,4S) or (R)(3R,4R)(3R,4R) or (S)(3S,4S)(3S,4S) or (S)(3S,4S)(3R,4R) or (S)(3R,4R)(3S,4S) or (S)(3R,4R)(3R,4R) 4-[4-(2-{[5-chloro-1-(2,2-difluorocyclopropyl)-1H-pyrazol-4-yl]amino}-6-methylquinazolin-7-yl)-3-fluoropiperidin-1-yl]oxolan-3-ol] the “LRRK2 pIC50” value was over 9.20. With `Cn1nc(C2CC2)cc1Nc1ncc2cc(Cl)c(C3CCN([C@@H]4COC[C@@H]4O)CC3)cc2n1` (single isomer, unassigned) [Ex-1.23, (3S,4S) or (3R,4R) 4-(4-{6-chloro-2-[(3-cyclopropyl-1-methyl-1H-pyrazol-5-yl)amino]quinazolin-7-yl}piperidin-1-yl)oxolan-3-ol] the “LRRK2 pIC50” value was 9.00.

Same assay, conditions: G2019S LRRK2, 134 μM ATP (Km ATP), mean values; read-out: LRRK2 pIC50 (converted)
`Clc1cc2cnc(Nc3cnn(C4CC4)c3Cl)nc2cc1C1CCN(C2COC2)C1` (single isomer, unassigned) [Ex-4.33, (S) or (R) 6-chloro-N-(5-chloro-1-cyclopropyl-1H-pyrazol-4-yl)-7-[1-(oxetan-3-yl)pyrrolidin-3-yl]quinazolin-2-amine] was tested, and the IC50 was 8.13 nM. `Cc1cc2cnc(Nc3cnn(C4CC4(F)F)c3Cl)nc2cc1C1CCN([C@H]2COC[C@H]2O)CC1` (single isomer, unassigned) [Ex-2.33, (R)(3S,4S) or (R)(3R,4R) or (S)(3S,4S) or (S)(3R,4R) 4-[4-(2-{[5-chloro-1-(2,2-difluorocyclopropyl)-1H-pyrazol-4-yl]amino}-6-methylquinazolin-7-yl)piperidin-1-yl]oxolan-3-ol] gave an IC50 of under 0.631 nM. For `CC1(n2ncc(Nc3ncc4cc(Cl)c(C5CCN(C6COC6)C5)cc4n3)c2Cl)CC1` (single isomer, unassigned) [Ex-4.26, (S) or (R) 6-chloro-N-[5-chloro-1-(1-methylcyclopropyl)-1H-pyrazol-4-yl]-7-[1-(oxetan-3-yl)pyrrolidin-3-yl]quinazolin-2-amine], the IC50 was 4.9 nM.
